Laboratory results from patent EP3967293A1, “COMPOSITION BASED ON VITAMIN E FOR TOPIC USE” (Sigla S.r.l., priority 2020, dated 2022).

Experiments:
[1] = index of diffusion (spreading value), in vivo test on the forearm; conditions: 4 mg on the forearm; 23°C; relative humidity 60%; ten minutes after application
Experimental: The index of diffusion of a compound is defined as the area (in mm^2) of a skin surface covered by said compound in a specific period of time.
The method used to determine the index of diffusion of a liquid component is an in vivo test. This method consists in applying 4 mg of the component to be analysed on the front forearm of an individual. For each component, 4 separate applications were carried out on the same individual. The test is carried out at a temperature of 23°C and at a relative humidity of 60%. Ten minutes after application of a sample on the forearm the area of diffusion was photographed and measured.

[2] = viscosity, Rheomat RM 180 rheometer; assay type: physicochemical; conditions: at 20°C; 1500 shear rate for 5 min.
Experimental: The viscosity is measured using a Rheomat RM 180 rheometer. The sample analysed has a temperature between 20-25°C. The settings for the viscosity test are: bob 9, tube 1, 1500 shear rate for 5 min. (300 sec.).

Index of diffusion [1]: 1600 mm^2/10 min.
Viscosity [2]: 4 mPa·s
SMILES: CCCCCCCCOCCCCCCCC [Dicaprylyl ether]
